Columns and labels:
D. immitis microfilariae = test: Dirofilaria immitis, microfilariae (DiMF) in vitro motility assay; assay type: cell-based; settings: Dirofilaria immitis, 72 h, read-out: DiMF minimally effective dose (MEC)
Haemonchus contortus L3 = test: microbe, parasite or virus in culture; assay type: cell-based; settings: Haemonchus contortus, 96 h, read-out: HcL3 Minimal Effective Concentration (MEC)

Row | SMILES | minimal effective concentration (D. immitis microfilariae) [µM] | minimal effective concentration (Haemonchus contortus L3) [µM]
1 | COc1ccc(/C=C/CN2CCc3c(c4c(Cl)cccc4n3C(=O)NCc3ccnc(Cl)c3)C2)cc1 [Example 220, (E)-9-chloro-N-((2-chloropyridin-4-yl)methyl)-2-(3-(4-methoxyphenyl)allyl)-1,2,3,4-tetrahydro-5H-pyrido[4,3-b]indole-5-carboxamide] | 10 | 3.3
2 | O=C(NCc1ccnc(Cl)c1)n1c2c(c3cccc(Cl)c31)CN(C/C=C/c1ccc(C(F)(F)F)cc1)CC2 [Example 272, (E)-6-chloro-N-((2-chloropyridin-4-yl)methyl)-2-(3-(4-(trifluoromethyl)-phenyl)allyl)-1,2,3,4-tetrahydro-5H-pyrido[4,3-b]indole-5-carboxamide] | 10 | > 100
3 | COc1cc(CNC(=O)n2c3c(c4ccc(C#N)cc42)CN(C/C=C/c2ccc(Cl)c(F)c2)CC3)ccn1 [Example 59, (E)-2-(3-(4-chloro-3-fluorophenyl)allyl)-7-cyano-N-((2-methoxypyridin-4-yl)methyl)-1,2,3,4-tetrahydro-5H-pyrido[4,3-b]indole-5-carboxamide] | 10 | 7.7
4 | O=C(NCc1cnc(Cl)s1)n1c2c(c3c(Cl)cccc31)CN(C/C=C/c1ccc(Cl)cc1)CC2 [Example 231, (E)-9-chloro-2-(3-(4-chlorophenyl)allyl)-N-((2-chlorothiazol-5-yl)methyl)-1,2,3,4-tetrahydro-5H-pyrido[4,3-b]indole-5-carboxamide] | 13.5 | 3.3
5 | O=C(NCc1ccnc(F)c1)n1c2c(c3ccc(OC(F)(F)F)cc31)CN(C/C=C/c1ccc(Cl)cc1F)CC2 [Example 371, (E)-2-(3-(4-chloro-2-fluorophenyl)allyl)-N-((2-fluoropyridin-4-yl)methyl)-7-(trifluoromethoxy)-1,2,3,4-tetrahydro-5H-pyrido[4,3-b]indole-5-carboxamide] | 24.5 | 1.3
6 | O=C(NCc1ccnc(Cl)c1)n1c2c(c3cc(Br)ccc31)CN(C/C=C/c1ccc(Cl)c(Cl)c1)CC2 [Example 186, (E)-8-bromo-N-((2-chloropyridin-4-yl)methyl)-2-(3-(3,4-dichlorophenyl)allyl)-1,2,3,4-tetrahydro-5H-pyrido[4,3-b]indole-5-carboxamide] | > 100 | 1
7 | O=C(NCc1ccnc(Cl)c1)n1c2c(c3cc4c(cc31)COC4)CN(C/C=C/c1ccc(C(F)(F)F)cn1)CC2 [Example 474, (E)-N-((2-chloropyridin-4-yl)methyl)-8-(3-(5-(trifluoromethyl)pyridin-2-yl)allyl)-1,3,6,7,8,9-hexahydro-5H-furo[3,4-f]pyrido[4,3-b]indole-5-carboxamide] | 10 | 0.2
8 | O=C(NCc1ccnc(Cl)c1)n1c2c(c3ccc(OC(F)(F)F)cc31)CN(C/C=C/c1ccc(F)cc1F)CC2 [Example 347, (E)-N-((2-chloropyridin-4-yl)methyl)-2-(3-(2,4-difluorophenyl)allyl)-7-(trifluoromethoxy)-1,2,3,4-tetrahydro-5H-pyrido[4,3-b]indole-5-carboxamide] | 2.4 | 2.4
9 | CS(=O)(=O)c1ccc2c(c1)c1c(n2C(=O)NCc2ccnc(Cl)c2)CCN(C/C=C/c2ccc(Cl)c(F)c2)C1 [Example 455, (E)-2-(3-(4-chloro-3-fluorophenyl)allyl)-N-((2-chloropyridin-4-yl)methyl)-8-(methylsulfonyl)-1,2,3,4-tetrahydro-5H-pyrido[4,3-b]indole-5-carboxamide] | 5.7 | 0.7
10 | O=C(NCc1ccnc(Cl)c1)n1c2c(c3ccc(Cl)cc31)CN(C/C=C/c1ccc(Cl)c(Cl)c1)CC2 [Example 215, (E)-7-chloro-N-((2-chloropyridin-4-yl)methyl)-2-(3-(3,4-dichlorophenyl)allyl)-1,2,3,4-tetrahydro-5H-pyrido[4,3-b]indole-5-carboxamide] | 10 | 0.5

Source: patent US10570129B2 (Zoetis Services LLC, priority 2015, dated 2020)
